Test results: paper PMC12692861, “Biotin-Linked Ursolic Acid Conjugates as Selective Anticancer Agents and Target-Identification Tools for Cancer Therapy” (Molecules, 2025)
Read-outs that look alike come from different tables or passages of the source. Blank lines part the entries; values can stand above or below the compound they belong to.

Legend:
T24 cells = test: MTT antiproliferative assay; type: cell-based, human; conditions: for IC50: Homo sapiens, T-24, MTT, 72 h, read-out: IC50 (Mean ± SD), T24; for SI (selectivity index), T24: IC50 MCF-12A / IC50 T24
Protocol: (§1) The synthesized hybrid conjugates 5a–d were evaluated for their antiproliferative activity against the established human bladder cancer cell lines T24 and 5637. Test compounds were dissolved in ultrapure dimethyl sulfoxide (DMSO), diluted in cell culture media, added to cells cultured in 96-well cluster wells, and incubated for 72 h. The concentration of DMSO in culture media was maintained at < 0.05%. As previously reported, the fraction of viable cells in the culture wells was compared to that in cultures with 0.05% DMSO-only using a colorimetric assay, the Methyl Tetrazolium Bromide (MTT) reduction assay. We determined the selectivity index (SI) of the compounds 5a–d against tumor cells by comparing their cytotoxicity to that of a non-tumorigenic breast epithelial cell line, MCF-12A, as well as a non-tumorigenic, immortalized urothelial cell line, UROtsa (Table 1, and Figure 2).
(§2) The antiproliferative activities of various compounds examined in this report were measured using the MTT (3-[4,5-dimethylthiazol-2-yl]-2,5-diphenyl-tetrazolium bromide) reduction assay, as previously described. Briefly, cells were seeded at 2 × 10^3 cells per well in a 96-well plate and cultured overnight. The cells were then treated with different doses (5 µM, 10 µM, 15 µM, 20 µM, 25 µM, 30 µM, 35 µM, 40 µM in DMSO) for 72 h. Viability of the treated cultures was estimated by conversion of MTT to the insoluble formazan after 3h incubation at 37 °C and 5% CO2. The purple-colored formazan crystals were dissolved in DMSO, and absorbance was recorded at wavelengths 570/640 nm using the Bio-Rad Benchmark Plus Microplate Reader. The percent of viable cells was calculated ODtreated cells/ODcontrol cell wells × 100.

5637 cells [1] = test: MTT antiproliferative assay; type: cell-based, human; conditions: for IC50: 72 h, MTT, read-out: IC50 (Mean ± SD), 5637
Protocol: as §1, §2

[2] = test system: human bladder cancer cell lines T24 and 5637; test: MTT antiproliferative activity, result in words; type: cell-based; conditions: 72 h
Protocol: as §1
The antiproliferative activities of various compounds examined in this report were measured using the MTT (3-[4,5-dimethylthiazol-2-yl]-2,5-diphenyl-tetrazolium bromide) reduction assay, as previously described. […] The purple-colored formazan crystals were dissolved in DMSO, and absorbance was recorded at wavelengths 570/640 nm using the Bio-Rad Benchmark Plus Microplate Reader. The percent of viable cells was calculated ODtreated cells/ODcontrol cell wells × 100.

MCF-12A = test: MTT assay, non-tumorigenic breast epithelial cell line; type: cell-based, human; conditions: Homo sapiens, MCF-12A; MTT, 72 h, non-tumorigenic cells; read-out: IC50 (Mean ± SD), MCF-12A
Protocol: as §1, §2

MB49 cells = test: Annexin V-FITC/PI apoptosis flow cytometry; type: cell-based, murine; conditions: Mus musculus, MB49, 24 h, read-out: Q4-3 (Q3, viable) cells
Protocol: (§3) The potential of cells treated with UA or 5c to undergo dose-dependent apoptosis was explored using quantitative flow cytometric analysis, as shown in Figure 4. Utilizing a kit that detects quantitative binding of Annexin V to externalized phosphatidyl serine during the apoptosis cascade and permeability of Propidium iodide (PI) in cells undergoing cell death, we determined the cells at various stages of cell death following 24h incubation with UA and 5c in various bladder cancer cells.
(§4) We used a fluorescence-based Annexin V binding assay to determine the fraction of the cell population undergoing early and late apoptosis due to the cytotoxicity of the drugs. Cells plated in a 60 mm dish overnight at 0.3 × 10^6 cells/well were incubated with the selected drug at several doses for 24 h. Subsequently, treated cells were labeled with FITC-Annexin V using a kit (eBioscience™ Annexin V Apoptosis Detection Kits; Invitrogen # 88-8005-72, Thermo Fisher Scientific, Seoul, Korea) as per the manufacturer’s instructions. Intact cell suspension labeled with FITC-Annexin V and PI was run on the NovoCyte Quanteon flow cytometer, and data were acquired in list mode. Acquired data were analyzed using NovoExpress software (version 1.6.1). Cells treated with Staurosporine (0.2 µM) act as a positive control.

5637 cells [3] = test: Annexin V-FITC/PI apoptosis flow cytometry; type: cell-based; conditions: Homo sapiens, 24 h, read-out: Q3-3 (Q3, viable) cells
Protocol: as §3, §4

IC50 (T24 cells): 108 ± 24.4 µM
Structure (SMILES): CC1CCC2(C(=O)OCCCOC(=O)CCCCC3SCC4NC(=O)NC43)CCC3(C)C(=CCC4C5(C)CCC(O)C(C)(C)C5CCC43C)C2C1C [Compound 5b, 3-((5-((3aS,4S,6aR)-2-Oxohexahydro-1H-thieno [3,4-d]imidazol-4-yl)pentanoyl)oxy) propyl 3-hydroxy-urs-12-en-28-oate]
SI (selectivity index), T24 (T24 cells): 0.68
IC50 (5637 cells [1]; Homo sapiens): ≥ 10000 µM
IC50 (5637 cells [1]): > 10000 µM
antiproliferative activity [2]: ineffective
IC50 (MCF-12A): 73.33 ± 0.12 µM

Structure (SMILES): CN[C@@H]1C[C@H]2O[C@@](C)([C@@H]1OC)n1c3ccccc3c3c4c(c5c6ccccc6n2c5c31)C(=O)NC4 [Stauro., Staurosporine]
viability at 0.2 µM (MB49 cells): 12.3%
viability at 0.2 µM (5637 cells [3]): 25.3%

IC50 (T24 cells): 14.6 ± 4.97 µM
Structure (SMILES): CC1CCC2(C(=O)OCCOC(=O)CCCCC3SCC4NC(=O)NC43)CCC3(C)C(=CCC4C5(C)CCC(O)C(C)(C)C5CCC43C)C2C1C [Compound 5a, 2-((5-((3aS,4S,6aR)-2-Oxohexahydro-1H-thieno [3,4-d]imidazol-4-yl)pentanoyl)oxy) ethyl 3-hydroxy-urs-12-en-28-oate]
SI (selectivity index), T24 (T24 cells): 42.96
IC50 (5637 cells [1]; Homo sapiens): 39.3 ± 21.2 µM
SI (selectivity index), 5637 (5637 cells [1]; IC50 MCF-12A / IC50 5637): 15.92
IC50 (MCF-12A): 626 ± 34.7 µM

IC50 (T24 cells): 582 µM
Structure (SMILES): CC1CCC2(C(=O)OCCCCCCOC(=O)CCCCC3SCC4NC(=O)NC43)CCC3(C)C(=CCC4C5(C)CCC(O)C(C)(C)C5CCC43C)C2C1C [Compound 5d, 6-((5-((3aS,4S,6aR)-2-Oxohexahydro-1H-thieno [3,4-d]imidazol-4-yl)pentanoyl)oxy) hexyl 3-hydroxy-urs-12-en-28-oate]
SI (selectivity index), T24 (T24 cells): 6.57
IC50 (5637 cells [1]; Homo sapiens): > 10000 µM
antiproliferative activity [2]: largely inactive
IC50 (MCF-12A): 3820 µM
